In one series the target is CYP3A (Homo sapiens, UniProt P08684). Put plainly: CYP3A inhibition assay (midazolam, pooled human liver microsomes). The class given is in vitro ADME. The following applies: microsomes.
Another series has as its target BACE1 (Homo sapiens, UniProt P56817). The series can be described thus: In vitro enzymatic BACE FRET (fluorescence resonance energy transfer) assay. The class given is biochemical. In outline:
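Cleavage of a quenched peptide FRET substrate (50 nM) in 0.05 M acetate pH 4.2, 10% DMSO, 100 uM genapol, 1 h incubation. Reaction stopped by Tris neutralization; fluorescence read at excitation 488 nm / […].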

Series [1] concerns Cells stably expressing Amyloid Precursor Protein (APP). The series can be described thus: In vitro BACE cell-based assay (HEK cell assay): Aβ40 in conditioned medium by sandwich ELISA. In outline: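 APP-stably-expressing cells were grown 24 h in DMEM/10% FBS, then treated for 24 h with 10-point doses starting at 100 μM or 10 μM, at 0.1% DMSO final. Aβ40 in conditioned medium was measured by sandwich ELISA (pAb40 capture, biotinylated 6E10 detection, europium time-resolved fluorescence); IC50 from percent inhibition.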
Background: In an ELISA, binding on a coated surface is turned into a signal by an enzyme label.

The nature of series [2]: Microsomal stability assay, rat liver microsomes. The class given is in vitro ADME. From the text: (§1) Microsomal Stability Assay
A short description of series [3]: Microsomal stability assay, human liver microsomes. The class given is in vitro ADME.
Text: as §1
In general terms: Liver microsomes are a subcellular fraction often used to study metabolism.

Another series has as its system Abeta peptide. The series can be described thus: In vivo inhibition of beta-secretase: Abeta peptide in CSF and brain after oral dosing. The following applies: Rattus norvegicus, po, orally dosed at about 30 mg/kg, CSF, read-out: reduction of Abeta peptide in the CSF of the rat. From the text: In Vivo Inhibition of Beta-Secretase
Several animal models, including mouse, rat, dog, and monkey, may be used to screen for inhibition of beta-secretase activity in vivo following administration of a test compound sample. Animals used in this invention can be wild type, transgenic, or gene knockout animals. For example, the Tg2576 mouse model, prepared and conducted as described in Hsiao et al., 1996, Science 274, 99-102, and other non-transgenic or gene knockout animals are useful to analyze in vivo inhibition of Amyloid beta peptide (Abeta) production in the presence of inhibitory test compounds. Generally, 2 to 18 month old Tg2576 mice, gene knockout mice or non-transgenic animals are administered test compounds formulated in vehicles, such as cyclodextran, phosphate buffers, hydroxypropyl methylcellulose or other suitable vehicles. […] A separate group of animals receive 2% hydroxypropyl methylcellulose, 1% Tween80 alone, containing no test compound, and serve as a vehicle-control group. At the end of the test period, animals are sacrificed and brain tissues, plasma or cerebrospinal fluid are collected. Brains are either homogenized in 10 volumes (w/v) of 0.2% diethylamine (DEA) in 50 mM NaCl (Best et al., 2005, Journal of Pharmacology and Experimental Therapeutics, 313, 902-908), or in 10 volumes of 0.5% TritonX-100 in Tris-buffered saline (pH at about 7.6). Homogenates are centrifuged at 355,000 g, 4° C. for 30 minutes. CSF or brain supernatants are then analyzed for the presence of Abeta peptide by specific sandwich ELISA assays based on ECL (Electrochemiluminescence) technology. For example, rat Abeta40 is measured using biotinylated-4G8 (Signet) as a capture antibody and Fab40 (an in-house antibody specific to the C-terminal of Abeta40) as a detection antibody. For example, 4 hours after administration of 30 mg/kg oral dose of the test compound in 2% hydroxypropyl methylcellulose, 1% Tween80 (pH2.2) to 200 g male Sprague Dawley rats, Abeta peptide levels are measured for reduction by X % and Y % in cerebrospinal fluid and brain, respectively, when compared to the levels measured in the vehicle-treated or control […].
Actual vehicles used: Oral: 2% HPMC, 1% Tween80, pH 2.2
• IV: 5% EtOH, 45% Propylene glycol in 5% Dextrose

[4] abbreviates: Homo sapiens, HEK293, 24 h, Aβ40 in conditioned medium after 24 h incubation.

pIC50: −log10 of the molar value. Like-named read-outs stand apart in the source and are kept apart here.

Sequence of BACE1 (P56817 46-501, species assumed): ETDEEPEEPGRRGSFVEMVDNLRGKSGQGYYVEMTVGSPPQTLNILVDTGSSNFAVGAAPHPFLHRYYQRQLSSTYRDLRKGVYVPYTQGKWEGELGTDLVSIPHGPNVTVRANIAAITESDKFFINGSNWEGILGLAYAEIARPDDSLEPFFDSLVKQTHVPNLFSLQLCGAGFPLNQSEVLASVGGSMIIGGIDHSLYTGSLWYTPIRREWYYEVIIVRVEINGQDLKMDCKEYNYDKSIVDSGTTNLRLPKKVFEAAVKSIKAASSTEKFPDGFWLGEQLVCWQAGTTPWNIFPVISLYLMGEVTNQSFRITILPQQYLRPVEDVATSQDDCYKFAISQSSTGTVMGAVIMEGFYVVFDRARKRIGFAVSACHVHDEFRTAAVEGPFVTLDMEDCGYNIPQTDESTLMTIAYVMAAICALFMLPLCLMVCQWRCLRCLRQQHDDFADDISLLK
Sequence of CYP3A (P08684 2-503): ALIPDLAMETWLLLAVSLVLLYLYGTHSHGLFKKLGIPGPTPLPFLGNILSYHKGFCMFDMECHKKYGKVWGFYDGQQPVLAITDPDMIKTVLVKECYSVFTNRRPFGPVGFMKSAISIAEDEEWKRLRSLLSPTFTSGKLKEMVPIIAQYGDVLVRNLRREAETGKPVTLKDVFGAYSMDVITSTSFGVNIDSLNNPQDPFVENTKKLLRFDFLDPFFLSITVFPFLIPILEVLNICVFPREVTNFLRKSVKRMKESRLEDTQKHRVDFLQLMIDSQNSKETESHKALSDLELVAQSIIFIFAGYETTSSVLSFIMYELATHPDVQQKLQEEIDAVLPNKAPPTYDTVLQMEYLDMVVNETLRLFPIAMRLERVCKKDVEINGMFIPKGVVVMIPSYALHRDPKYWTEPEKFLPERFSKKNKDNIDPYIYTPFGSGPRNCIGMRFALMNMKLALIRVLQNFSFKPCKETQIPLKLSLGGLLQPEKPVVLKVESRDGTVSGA

Consider “N-((1S)-1-((1R)-2-(((4′S)-6′-(2,2-dimethylpropyl)-8′-(1-methyl-1H-imidazol-2-yl)-3′,4′-dihydrospiro[cyclobutane-1,2′-pyrano[2,3-c]pyridin]-4′-yl)amino)-1-hydroxyethyl)-3-buten-1-yl)-2-methoxyacetamide [Example 239]”, for which the values for the pIC50 (at CYP3A; on BACE1 (read-out: BACE 1 FRET assay); in series [1]) were 5.96, 6.68 and 5.82, respectively. Besides, the RLM in series [2] is 340 µL/min/mg. In series [3], the HLM was 311 µL/min/mg.

Take `CC#CCC(NC(=O)C1CCC(=O)O1)C(O)CNC1CC2(CCC2)Oc2ncc(CC(C)(C)C)cc21` [Example 88, (S)-N((2R,3S)-1((S)-2,2-spirocyclobutane-6-neopentyl-3′,4′-dihydro-2H-pyrano[2,3-b]pyridin]-4′-ylamino)-2-hydroxyhept-5-yn-3-yl)-5-oxo-tetrahydrofuran-2-carboxamide.]: the inhibition in vivo at 30 mg/kg in the series with Abeta peptide was ≥ 5%. Also, the pIC50 on BACE1 was 7.70; in series [1] (setting [4]), 7.14.

Take `C=CCC(NC(=O)COC)C(O)CNC1CC2(CC(O)C2)Oc2ncc(CC(C)(C)C)cc21` [Example 107, N-((1S)-1-((1R)-2-(((1s,3S,4′S)-6′-(2,2-dimethylpropyl)-3-hydroxy-3′,4′-dihydrospiro[cyclobutane-1,2′-pyrano[2,3-b]pyridin]-4′-yl)amino)-1-hydroxyethyl)-3-buten-1-yl)-2-(methyloxy)acetamide]: the inhibition in vivo at 30 mg/kg in the series with Abeta peptide was ≥ 5%. Besides, the pIC50 at BACE1 was 7.80; in series [1] (setting [4]), 7.46.
